PubChem BioAssay (NCI)
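The compound was tested at five concentrations on cells cultured in 96-well plates, with a 48-hour exposure period. TGI denotes the concentration required for complete inhibition of growth.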

Assays:
Test in all cases: NCI tumour cell line growth inhibition, 48 h
U251 CNS = system: U251 CNS
NCI-H460 lung = system: NCI-H460 lung
MDA-MB-231 breast = system: MDA-MB-231 breast
SW-620 colon = system: SW-620 colon
OVCAR-4 ovarian = system: OVCAR-4 ovarian
IGROV1 ovarian = system: IGROV1 ovarian
SF-268 CNS = system: SF-268 CNS
HCC-2998 colon = system: HCC-2998 colon
HCT-116 colon = system: HCT-116 colon
RPMI-8226 leukemia = system: RPMI-8226 leukemia
SK-OV-3 ovarian = system: SK-OV-3 ovarian
HOP-62 NSCLC = system: HOP-62 NSCLC
RXF 393 renal = system: RXF 393 renal
A549 NSCLC = system: A549 NSCLC
HOP-92 NSCLC = system: HOP-92 NSCLC
SR leukemia = system: SR leukemia
OVCAR-8 ovarian = system: OVCAR-8 ovarian

SMILES	TGI (U251 CNS) [µM]	TGI (NCI-H460 lung) [µM]	TGI (MDA-MB-231 breast) [µM]	TGI (SW-620 colon) [µM]	TGI (OVCAR-4 ovarian) [µM]	TGI (IGROV1 ovarian) [µM]	TGI (SF-268 CNS) [µM]	TGI (HCC-2998 colon) [µM]	TGI (HCT-116 colon) [µM]	TGI (RPMI-8226 leukemia) [µM]	TGI (SK-OV-3 ovarian) [µM]	TGI (HOP-62 NSCLC) [µM]	TGI (RXF 393 renal) [µM]	TGI (A549 NSCLC) [µM]	TGI (HOP-92 NSCLC) [µM]	TGI (SR leukemia) [µM]	TGI (OVCAR-8 ovarian) [µM]
CCC(=O)N/S(=N/S(=O)(=O)c1ccccc1)C(Cl)(Cl)Cl (configuration not stated)	> 100	> 100	> 100	> 100	> 100	> 100	> 100	> 100	> 100	> 100	> 100	> 100	> 100	> 100	> 100	> 100	> 100
CC(C)=NOC(=O)CNC(=O)C(Cc1ccccc1)NC(=O)C(C)NC(=O)OC(C)(C)C (configuration not stated)	> 100	> 100	> 100	> 100	> 100	> 100	> 100	> 100	> 100	> 100	> 100	> 100	> 100	> 100	> 100	> 100	> 100
NC(=O)CSc1c2cc(O)ccc2nc2ccc(O)cc12	> 10	> 10	> 10	> 10	> 10	> 10	> 10	> 10	> 10	> 10	> 10	> 10	> 10	> 10	> 10	> 10	> 10
CC(Oc1ccc(Oc2cnc3ccc(Cl)cc3n2)cc1)C(=O)O (configuration not stated)	> 100	> 100	> 100	> 100	> 100	> 100	> 100	> 100	> 100	> 100	> 100	> 100	> 100	> 100	> 100	> 100	> 100
Cc1nc2ccc(S(=O)(=O)NS(=O)(=O)c3ccc(-c4ccccc4)cc3)cc2c(=O)n1NS(=O)(=O)c1ccc(-c2ccccc2)cc1	> 100	> 100	> 100	> 100	> 100	> 100	> 100	> 100	> 100	> 100	> 100	> 100	> 100	> 100	> 100	> 100	> 100
O=[N+]([O-])c1ccc(C2ON=C(c3ccccc3)N2C23CC4CC(CC(C4)C2)C3)cc1 (configuration not stated)	> 10	> 10	> 10	> 10	> 10	> 10	> 10	> 10	> 10	> 10	> 10	> 10	> 10	> 10	> 10	> 10	> 10
Oc1[nH]c2ccccc2c1C1=Nc2ccccc2/C1=N\OCCOC1OCC(O)C(O)C1O (configuration not stated)	> 100	> 100	> 100	> 100	> 100	> 100	> 100	> 100	> 100	> 100	7.99	> 100	> 100	> 100	> 100	> 100	> 100
COC(=O)c1c(CC(Cc2ccc3c(c2)CCCC3)C(=O)O)ccc2c1CCCC2 (configuration not stated)	> 100	47.9	> 100	> 100	> 100	> 100	> 100	70.2	33.1	73.3	> 100	51.7	> 100	> 100	50.9	91.6	> 100
COc1ccc(/C=C2\C[C@H]3[C@@H]4CCC5=C/C(=N/O)CC[C@]5(C)[C@H]4CC[C@]3(C)\C2=N\O)cc1	> 100	> 100	> 100	> 100	> 100	> 100	> 100	49.7	> 100	93.5	> 100	> 100	98.8	> 100	> 100	86	> 100
C[C@H]1C2Cc3cc(O)ccc3[C@@]1(C)CCN2CCc1ccc(N)cc1	33.9	> 100	> 100	36	> 100	66.3	52.6	26.4	31.2	> 100	> 100	33.4	> 100	> 100	73.7	72.8	45.8
CC12CC(=O)Nc3ccccc3N1C(c1ccccc1)=NO2 (configuration not stated)	> 100	> 100	> 100	> 100	> 100	> 100	> 100	> 100	> 100	> 100	> 100	> 100	> 100	> 100	> 100	> 100	> 100
C[C@@H](C[C@H]1OC(C)(C)O[C@@H]1C(C)(C)O)[C@H]1CC=C2[C@]3(C)[C@H](O)C[C@H]4C(C)(C)[C@H](O)CC[C@]4(C)[C@H]3CC[C@]21C	15	14.2	18.7	19.4	26.2	21.1	31.4	15.8	16	12.8	20.6	20.7	12.1	15.2	13.6	11.3	27.1
Cn1c(=Nc2ccc(Cl)cc2)sc2ccccc21	> 100	> 100	> 100	> 100	> 100	> 100	> 100	68.3	> 100	> 100	> 100	> 100	> 100	> 100	85.7	> 100	> 100
COc1c2c(nc3ccccc13)-c1cc(C(CC(=O)OC(C)(C)C)C(=O)OC(C)C)c(CO)c(=O)n1C2 (configuration not stated)	> 100	> 86.1	> 100	> 100	> 100	> 100	> 100	> 100	> 100	> 100	> 100	> 100	> 100	> 100	> 100	> 100	> 100
CC(=O)C(C(=O)c1ccc(C)cc1)[C@H]1OC(C)(C)O[C@H]1[C@H]1COC(C)(C)O1 (some centres not stated)	7	17.2	13.6	10.8	9.37	11	28.5	14.2	6.81	> 50	18.4	14.3	9.01	22.9	16.7	> 50	12.6
CO/N=C\c1ccc2c(c1)Sc1ccccc1O2	> 100	> 100	> 100	> 100	> 100	> 100	> 100	> 100	> 100	> 100	> 100	> 100	> 100	> 100	> 100	> 100	> 100
CC1(C)OCC(C2OC3OC(C)(C)OC3C2c2ccccc2)O1 (configuration not stated)	> 100	> 100	> 100	> 100	> 100	> 100	> 100	> 100	> 100	> 100	> 100	> 100	> 100	> 100	79	> 100	> 100
COc1cc(C(=O)Oc2c(C(C)=O)sc3c2c(=O)n(-c2ccccc2)c(=S)n3-c2ccccc2)cc(OC)c1OC	77.8	29.8	88.8	68.4	64.2	43.5	77.4	55.6	36.2	59.9	> 100	67.1	41.6	78.3	55.8	> 100	53.7
COc1cc(/C=N/N=C(\N)NO)cc(OC)c1OC	> 100	> 100	> 100	> 100	> 100	> 100	> 100	> 100	> 100	> 100	> 100	> 100	> 100	> 100	> 100	71.2	37.9
O=C(Cn1cc(Br)c(=O)[nH]c1=O)c1ccc(-c2ccccc2)cc1	62.5	> 48	> 52	> 100	> 100	> 33.1	15.8	> 28.7	> 100	> 100	> 100	39.2	> 100	> 100	82.5	> 100	76.5
N#Cc1c(Cl)c2cccnc2n2c1nc1ccccc12	10.3	19.6	5.38	4.59	5.29	4.94	8.4	10.7	3.19	5.67	30	> 56.1	3.44	18.6	3.91	5.83	3.77
